The values that follow come from patent US4336192A, “5,6-Dihydro-11-alkylene-morphanthridin-6-ones” (BASF Aktiengesellschaft, priority 1979, dated 1982).

“Also recorded” adds a separate entry of the source. Structures can show the parent of a compound that is named as a salt. Where two headings read alike, the source gives them in different places.

Data set [1] concerns female NMRI mice. The data set is described as follows: Sedative effect: orientation hypermotility in a new environment, measured photoelectrically. The class given is in vivo. Particulars: for ED50: Mus musculus, 0.5 h, read-out: Sedative effect ED 50%, oral, female NMRI mice, dose which reduces orientation hypermotility by 50% vs untreated controls, 30 min after administration; for Sedative effect (in words): result in words. Here is the method:
The substances are administered orally to groups of 4×3 or 8×3 female NMRI mice. The orientation hypermotility induced by a new environment is determined photoelectrically, 30 minutes after the administration of the substances, for a period of 30 minutes.

The test system of data set [2] is female NMRI mice. As to the kind of experiment: Anti-cholinergic effect: protection against death from Physostigmin. The class given is in vivo. To be noted: for ED50: Mus musculus, read-out: Anti-cholinergic effect ED 50%, oral, 30 min before Physostigmin 0.825 mg/kg s.c., female NMRI mice, dose which protects 50% of animals against death; for Anti-cholinergic effect (in words): result in words, Physostigmin antagonism; for Anti-cholinergic effect R.A. (relative activity): Clozapin = 1.00. Here is the method: 3. Anti-cholinergic effect
A lethal dose (0.825 mg/kg) of Physostigmin is administered subcutaneously to groups of 10 female NMRI mice. The test substances are administered orally 30 minutes before administering the Physostigmin.

Data set [3] concerns female Sprague-Dawley rats. As to the kind of experiment: Apomorphine-antagonistic effect: apomorphine-triggered jaw motions (mandibulogram). The class given is in vivo. To be noted: for ED50: Rattus norvegicus, sc, read-out: Apomorphine antagonism ED 50%, female Sprague-Dawley rats, 1.5 mg of apomorphine/kg s.c., dose which reduces number of jaw movements by 50%; for Apomorphine-antagonistic effect (in words): result in words. Here is the method:
4. Apomorphine-antagonistic effect
Jaw motions are triggered in groups of 4-6 female Sprague-Dawley rats by subcutaneous administration of 1.5 mg of apomorphine/kg, and are recorded by means of implanted electrodes (KUBACKI mandibulogram, 1978).

Data set [4] is described as follows: Acute toxicity. To be noted: mouse, in vivo, ip, read-out: Toxicity LD 50. Here is the method:
The substances are administered intraperitoneally to groups of 5-10 female NMRI mice.

Data set [5] relates to female NMRI mice. As to the kind of experiment: Analgesic effect: D'amour and Smith tail-flick method. The class given is in vivo. To be noted: for Analgesic effect (in words): result in words. In general terms: In hot-plate and tail-flick tests a longer latency is read as antinociception.
Description: The analgesic effect is determined by means of the D'amour and Smith (1941) tail-flick method. In this, the substances are administered intraperitoneally to groups of 10 female NMRI mice. The pain reaction is triggered 30 minutes after administration. The reaction time, until the tail is flicked out of the way after exposure to a focused light beam, is measured.
Setting [6] is: intraperitoneal, female NMRI mice, dose which causes death of 50% of animals.

For the compound `CN1CCN(C2=Nc3ccccc3/C(=C/C#N)c3ccccc32)CC1` [Example 17 (cis-isomer), cis 11-cyanomethylene-6-(4-methylpiperazin-1-yl)-morphanthridine], in data set [1], the ED50 is 1.98 mg/kg and the “Sedative effect (in words)” value was “strong sedative effects; also recorded: responsible for the sedative effect”. For the same compound, in data set [2], the ED50 was determined as 17.4 mg/kg and the “Anti-cholinergic effect (in words)” value is reported as “relative to Clozapin, an approximately comparable anti-cholinergic effect”. Besides, in data set [3], the ED50 stood at 46 mg/kg and the “Apomorphine-antagonistic effect (in words)” value is “lower apomorphine-antagonistic effect”. The LD50 in data set [4] came to 147 mg/kg.

For `N#CC=C1c2ccccc2N=C(NCCN2CCCCC2)c2ccccc21` (mixture of isomers) [Example 39 (cis-trans mixture), cis,trans-11-Cyanomethylene-6-(2-piperidin-1-ylethylamino)-morphanthridine.1/2H2 O], the ED50 in data set [1] was 1.61 mg/kg; in data set [2], above 10 mg/kg; in data set [3], 46 mg/kg. In data set [1], the “Sedative effect (in words)” value was “strong sedative effects”. The “Anti-cholinergic effect R.A. (relative activity)” value in data set [2] is recorded as above 1.41. In addition, in data set [4] (setting [6]), the LD50 worked out at 5.35 mg/kg. In addition, the “Analgesic effect R.A. (relative activity)” value in data set [5] (relative activity, Clozapin = 1.00) is given as above 0.21.

For the compound `Cc1ccc2c(c1)N=C(N1CCN(C)CC1)c1ccccc1C2=CC#N` (mixture of isomers) [Example 30 (cis-trans mixture), cis,trans-3-Methyl-11-cyanomethylene-6-(4-methylpiperazin-1-yl)-morphanthridine], in data set [1], the ED50 is 0.804 mg/kg; the “Sedative effect (in words)” value is “strong sedative effects; also recorded: high sedative activity (greater than that of Clozapin and Perlapin)”. Moreover, in data set [2], the ED50 stood at 31.2 mg/kg, the “Anti-cholinergic effect R.A. (relative activity)” value was 0.45 and the “Anti-cholinergic effect (in words)” value was “moderate anti-cholinergic effect”. For the same compound, the ED50 in data set [3] is 35 mg/kg. Moreover, the LD50 in data set [4] (setting [6]) turned out to be 178 mg/kg. For the same compound, in data set [5], the “Analgesic effect (in words)” value is “An analgesic effect is found; also recorded: stronger analgesic effect”.

`CCN1CCN(C2=Nc3ccccc3C(=CC#N)c3ccccc32)CC1` (mixture of isomers) [Example 36 (cis-trans mixture), cis,trans-11-Cyanomethylene-6-(4-ethyl-piperazin-1-yl)-morphanthridine]: in data set [1], the ED50 is 3.34 mg/kg and the “Sedative effect (in words)” value is “relatively strong sedative effects”. In data set [2], the ED50 stood at 7.8 mg/kg and the “Anti-cholinergic effect (in words)” value was “manifests itself especially”. Further, the ED50 in data set [3] was 43 mg/kg. Besides, the LD50 in data set [4] worked out at 100 mg/kg.

As for `Cc1ccc2c(c1)C(=CC#N)c1ccccc1C(N1CCN(C)CC1)=N2` (mixture of isomers) [Example 31 (cis-trans mixture), cis,trans-2-Methyl-11-cyanomethylene-6-(4-methylpiperazin-1-yl)-morphanthridine], in data set [1], the ED50 turned out to be 3.35 mg/kg and the “Sedative effect (in words)” value is reported as “relatively strong sedative effects”. Also, in data set [2], the ED50 stood at 2.74 mg/kg and the “Anti-cholinergic effect (in words)” value is recorded as “manifests itself especially”. The ED50 in data set [3] came to 42 mg/kg. Further, the LD50 in data set [4] (setting [6]) is 50 mg/kg.

As for `Cc1ccc2c(c1)N=C(N1CCN(C)CC1)c1ccccc1/C2=C/C#N` [Example 30 (trans-isomer), trans-3-methyl-11-cyanomethylene-6-(4-methylpiperazin-1-yl)-morphanthridine], in data set [1], the ED50 stood at 33.6 mg/kg and the “Sedative effect (in words)” value is given as “little or no sedative effect”. In data set [2], the ED50 was 12.3 mg/kg; the “Anti-cholinergic effect (in words)” value is “stronger anti-cholinergic and apomorphine-antagonistic effect”. In data set [3], the ED50 is 19 mg/kg; the “Apomorphine-antagonistic effect (in words)” value is “stronger anti-cholinergic and apomorphine-antagonistic effect”. The LD50 in data set [4] (setting [6]) was above 100 mg/kg.

In the case of `Cc1ccc2c(c1)N=C(N1CCN(C)CC1)c1ccccc1/C2=C\C#N` [Example 30 (cis-isomer), cis-3-methyl-11-cyanomethylene-6-(4-methyl-piperazin-1-yl)-morphanthridine], in data set [1], the ED50 is 1.06 mg/kg; the “Sedative effect (in words)” value was “strong sedative and strong analgesic effects”. Also, in data set [3], the ED50 worked out at 85 mg/kg; the “Apomorphine-antagonistic effect (in words)” value was “weaker apomorphine-antagonistic effect than that of Clozapin and Perlapin”. The LD50 in data set [4] came out at 287 mg/kg. Further, the “Analgesic effect (in words)” value in data set [5] is “substantially more active than Clozapin; also recorded: strong sedative and strong analgesic effects”.

With `CN1CCN(C2=Nc3cc(Cl)ccc3Nc3ccccc32)CC1` [Clozapin, reference compound], the figures for the ED50 in data set [1], in data set [2] and in data set [3] were 4.74 mg/kg, 14.1 mg/kg and 8 mg/kg, respectively. Further, the “Anti-cholinergic effect R.A. (relative activity)” value in data set [2] is given as 1.00. Also, in data set [4] (setting [6]), the LD50 worked out at 215 mg/kg.

As to `CN1CCN(C2=Nc3ccccc3/C(=C\C#N)c3ccccc32)CC1` [Example 17 (trans-isomer), trans-11-cyanomethylene-6-(4-methyl-piperazin-1-yl)-morphanthridine], in data set [1], the ED50 is above 21.5 mg/kg and the “Sedative effect (in words)” value is given as “very slight”. For the same compound, in data set [2], the ED50 stood at 4.7 mg/kg; the “Anti-cholinergic effect (in words)” value is “manifests itself especially; also recorded: particularly exhibits an anti-cholinergic and apomorphine-antagonistic effect”. Moreover, in data set [3], the ED50 was determined as 12 mg/kg; the “Apomorphine-antagonistic effect (in words)” value was “particularly exhibits an anti-cholinergic and apomorphine-antagonistic effect”. Also, the LD50 in data set [4] (setting [6]) is 332 mg/kg.

Regarding `C[N+]1([O-])CCN(C2=Nc3ccccc3C(=CC#N)c3ccccc32)CC1` (mixture of isomers) [Example 44 (cis-trans mixture), cis,trans-11-Cyanomethylene-6-(4-methyl-4-oxy-piperazin-1-yl)-morphanthridine.2H2 O], the ED50 in data set [1] worked out at 14.3 mg/kg. Moreover, in data set [2], the ED50 is 1.98 mg/kg, the “Anti-cholinergic effect R.A. (relative activity)” value came to 7.12 and the “Anti-cholinergic effect (in words)” value was “manifests itself especially”. Moreover, the ED50 in data set [3] is 85 mg/kg. Moreover, the LD50 in data set [4] (setting [6]) was 464 mg/kg.

On to `CCN1CCN(C2=Nc3ccccc3/C(=C\C#N)c3ccccc32)CC1` [Example 36 (trans-isomer), trans-11-cyanomethylene-6-(4-ethyl-piperazin-1-yl)-morphanthridine], for which, in data set [1], the ED50 is above 100 mg/kg and the “Sedative effect (in words)” value is on record as “little or no sedative effect”. Also, in data set [2], the ED50 amounted to 5.6 mg/kg; the “Anti-cholinergic effect (in words)” value was “manifests itself especially; also recorded: stronger anti-cholinergic and apomorphine-antagonistic effect”. In data set [3], the ED50 was determined as 22 mg/kg; the “Apomorphine-antagonistic effect (in words)” value is “stronger anti-cholinergic and apomorphine-antagonistic effect”. Also, the LD50 in data set [4] (setting [6]) is above 100 mg/kg.

Regarding `C[N+]1([O-])CCN(C2=Nc3ccccc3/C(=C\C#N)c3ccccc32)CC1` [Example 44 (trans-isomer), trans-11-cyanomethylene-6-(4-methyl-4-oxy-piperazin-1-yl)-morphanthridine], in data set [1], the ED50 came out at 100 mg/kg and the “Sedative effect (in words)” value is “little or no sedative effect”. Also, in data set [2], the ED50 came out at 3.74 mg/kg; the “Anti-cholinergic effect R.A. (relative activity)” value is listed as 3.77; the “Anti-cholinergic effect (in words)” value was “manifests itself especially; also recorded: stronger anti-cholinergic and apomorphine-antagonistic effect”. In data set [3], the ED50 came out at 25 mg/kg; the “Apomorphine-antagonistic effect (in words)” value is “stronger anti-cholinergic and apomorphine-antagonistic effect”. In addition, in data set [4] (setting [6]), the LD50 was 559 mg/kg.

For `C[N+]1([O-])CCN(C2=Nc3ccccc3/C(=C/C#N)c3ccccc32)CC1` [Example 44 (cis-isomer), cis-11-cyanomethylene-6-(4-methyl-4-oxy-piperazin-1-yl)-morphanthridine], the ED50 in data set [1] is 17.6 mg/kg; in data set [2] it was 100 mg/kg; in data set [3] it was above 100 mg/kg. Further, in data set [2], the “Anti-cholinergic effect R.A. (relative activity)” value amounted to 0.14. Besides, in data set [4] (setting [6]), the LD50 was 261 mg/kg.

Take `CN1CCN(C2=Nc3ccccc3Cc3ccccc32)CC1` [Perlapin, reference compound]: the figures for the ED50 in data set [1], in data set [2] and in data set [3] were 2.05 mg/kg, above 21.5 mg/kg and 22 mg/kg, respectively. Besides, the “Anti-cholinergic effect R.A. (relative activity)” value in data set [2] was below 0.66. The LD50 in data set [4] (setting [6]) came out at 215 mg/kg. Also, in data set [5] (intraperitoneal, female NMRI mice, dose which lengthens tail-flick reaction time by 100% vs control, 30 min after administration), the “Analgesic effect ED 100%” value is listed as above 21.5.

In the case of `N#CC=C1c2ccccc2N=C(N2CCCNCC2)c2ccccc21` (mixture of isomers) [Example 37 (cis-trans mixture), cis,trans-11-Cyanomethylene-6-homopiperazin-1-yl-morphanthridine.HCl.H2 O], the ED50 was above 21.5 mg/kg in data set [1], 5.49 mg/kg in data set [2] and above 100 mg/kg in data set [3]. In addition, the “Anti-cholinergic effect R.A. (relative activity)” value in data set [2] amounted to 2.57. In data set [2], the “Anti-cholinergic effect (in words)” value is given as “manifests itself especially”. Besides, the LD50 in data set [4] (setting [6]) came to 69.8 mg/kg.
